The target in assay [1] is T1, CCR2 (Homo sapiens, UniProt P41597).
T1 construct: host or cells: HEK293T, transient
T1 sequence (P41597 1-360 isoform P41597-2): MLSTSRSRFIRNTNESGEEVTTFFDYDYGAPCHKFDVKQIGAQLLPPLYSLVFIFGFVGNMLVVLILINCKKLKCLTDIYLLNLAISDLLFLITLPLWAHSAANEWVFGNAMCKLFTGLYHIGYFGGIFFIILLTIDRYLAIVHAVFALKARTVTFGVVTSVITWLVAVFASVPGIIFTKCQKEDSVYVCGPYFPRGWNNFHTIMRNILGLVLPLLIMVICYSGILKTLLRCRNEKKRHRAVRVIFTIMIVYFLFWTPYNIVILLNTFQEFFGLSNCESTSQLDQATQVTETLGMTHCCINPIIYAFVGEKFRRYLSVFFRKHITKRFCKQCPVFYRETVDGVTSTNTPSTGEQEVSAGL
Set-up: method as in PMID 35838163. The settings on record: membrane-based setup; cited from earlier work.

Assay [2] concerns the target T2, CCR1 (Homo sapiens, UniProt P32246).
T2 sequence (P32246 1-355): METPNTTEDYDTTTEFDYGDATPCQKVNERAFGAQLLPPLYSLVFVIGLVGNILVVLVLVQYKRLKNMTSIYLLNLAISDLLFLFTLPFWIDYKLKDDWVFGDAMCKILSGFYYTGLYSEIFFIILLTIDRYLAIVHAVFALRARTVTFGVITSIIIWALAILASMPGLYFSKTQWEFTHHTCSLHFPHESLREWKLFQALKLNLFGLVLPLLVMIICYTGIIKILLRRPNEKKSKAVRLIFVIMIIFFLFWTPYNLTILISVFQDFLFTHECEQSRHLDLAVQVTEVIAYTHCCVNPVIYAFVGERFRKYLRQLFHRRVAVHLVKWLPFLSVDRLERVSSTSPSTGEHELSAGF
Nature of the assay: Membrane-based NanoBRET saturation binding assay, CCR1_Nluc membranes from HEK293T cells. The arrangement: Promega pNLF1-C (Nluc) #CCR010TN00; host or cells: HEK293T, transient (PEI). The settings on record: saturation binding of fluorescent ligand, read-out: KD (equilibrium, KD(eq.)). The source says:
To evaluate the CCR1 affinity of previously reported (8–9) and new fluorescently labeled pyrrolones (11–12), we developed a NanoBRET-based binding assay (Figures 4A–H and S2A–J). To this end, we used a previously reported CCR1 construct (hereafter referred to as CCR1_Nluc) with a small and bright luciferase variant (nanoluciferase,[52] Nluc), fused to the intracellular C-terminus of CCR1 (Figures 4A and S2A).[47] […] This was expected, given the very low CCR2/CCR1 selectivity of the parental ligands 4 and 5 (Figure 1).[33] For further studies, we selected 12 due to its highest CCR1 affinity.
Cell culture: HEK293T cells were cultured as previously described.8 In brief, HEK293T cells (gift from Chair of Physiology, Prof. Dr. Alzheimer, FAU Erlangen-Nürnberg) were grown on 10 cm culture dishes at 37 °C and 5% CO2. As growth medium, Dulbecco's Modified Eagle Medium (DMEM)/F12 (Invitrogen) supplemented with 10% fetal bovine serum (FBS, Gibco™ Fetal Bovine Serum, qualified, Brazil), L-glutamine (final concentration: 2 mM; from Gibco™ L-glutamine 200 mM, 100X), penicillin (final concentration: 100 units/mL), and streptomycin (final concentration: 100 µg/mL; from Gibco™ Penicillin-Streptomycin 10,000 U/mL) was used. Cells were split every three to four days and regularly confirmed to be free of mycoplasma contamination using the luminescence-based MycoAlert Plus Kit (Lonza).
Transient transfection using polyethylenimine: For transfection, we used a previously published procedure.8 In brief, HEK293T cells were plated onto culture dishes (Ø 10 cm or Ø 15 cm) and grown to a confluence of approximately 50% at 37 °C and 5% CO2. The growth medium was renewed one-hour before transfection. The transfection mix was prepared, as described in the following. Solution A (0.4-2.2% total DNA (1-5.5 µg) in Gibco™ phosphate buffered saline, pH 7.4) and solution B (3% PEI (linear, 25 kDa, from Polysciences) solution prepared from a PEI stock solution (0.4 µg/µL) in PBS without MgCl2 and CaCl2) were mixed one to one, the resulting mixture was vortexed for 5 s and incubated for 30 min at room temperature. The pre-incubated transfection mix was added dropwise to the cells and cell cultivation was continued […]
Membrane preparation: Membranes were prepared as previously reported.8 In brief, membranes from HEK293T cells transiently expressing the respective GPCR were prepared as follows. The medium of the transfected cells was refreshed after 24 h before cells were harvested 48 h post-transfection. […]
Finally, the protein concentration was determined using the Lowry method.9 cDNA constructs: The CCR1-Nluc fusion construct (CCR1_Nluc) in pcDNA3.1 was generated as previously reported1 using the Gibson Assembly10 (New England Biolabs) method. […]

Assay [3] concerns the target T3, human chemokine receptor CCR2 (Homo sapiens, UniProt P41597).
T3 construct: expressed in transfected cells; host or cells: HEK293T, transient
Nature of the assay: Cellular NanoBiT β-arrestin recruitment assay. In kind it is cell-based. Conditions: n = 1; read-out: EC50, β-arrestin-2 recruitment, CCR2 activation. The procedure: (PerkinElmer, Groningen, NL).
(§1) Cellular NanoBiT β-arrestin recruitment assays: Chemokine-induced β-arrestin-2 recruitment to chemokine receptors CCR1 and CCR2 was monitored using a nanoluciferase complementation -based assay (NanoBiT, Promega). 17-19 5 x 10^6 HEK293T cells were plated in 10 cm dishes and cultured for 24 h before transfection with vectors encoding for the human chemokine receptor CCR1 or CCR2 C-terminally fused with SmBiT and β-arrestin 2 N-terminally fused with LgBiT. 24 h after transfection cells were harvested, distributed into white 96-well plates (5 × 10^4 cells per well) and incubated for 1 h at 37 °C with compound 23 at concentrations ranging from 10 nM to 10 µM. The endogenous chemokine ligand CCL5 (3 nM, for CCR1) or CCL2 (10 nM, for CCR2) was then added, and luminescence generated upon nanoluciferase complementation in the presence of coelenterazine H was measured with a Mithras LB940 luminometer (Berthold Technologies) for 20 min. […]
(§2) Finally, the top 5% of the identified hits were subsequently docked to a homology model of CCR1 (vide infra). After visual examination of the obtained binding modes 24 hit compounds were identified for further investigation .
(§3) Molecular docking: For the docking studies in the course of our virtual screening campaign, the CCR1 protein was […]
(§4) 27, 28 CCR1 structure was optimized using the Quickprep and structure preparation wizard in MOE 24 using CHARMM27 forcefield. The protein was saved in mol2 format and loaded in GOLD.25, 26 The amino acids defining the IABS were listed in a text file to define the docking cavity. 50 GA runs were performed for docking CCR2-RA-[R] (4-[R]) and SN_12 (43), with the generated solutions clustered based on their RMSD with the threshold set to 0.75 Å using the complete linkage method. Docking runs were performed using ChemScore. […]

In assay [4] the target is T4, human chemokine receptor CCR1 (Homo sapiens, UniProt P32246).
T4 construct: expressed in transfected cells; host or cells: HEK293T, transient
T4 sequence (P32246 1-355): T2 sequence (P32246 1-355)
Nature of the assay: Cellular NanoBiT β-arrestin recruitment assay. Conditions: n = 3; read-out: EC50, β-arrestin-2 recruitment, CCR1 activation. It counts as cell-based. The procedure:
as §1, with “CCR1” for “Cellular NanoBiT β-arrestin recruitment assays: Chemokine-induced β-arrestin-2 recruitment to chemokine receptors CCR1”
as §2, §3
27, 28 CCR1 structure was optimized using the Quickprep and structure preparation wizard in MOE 24 using CHARMM27 forcefield. The protein was saved in mol2 format and loaded in GOLD.25, 26 The amino acids defining the IABS were listed in a text file to define the docking cavity. 50 GA runs were performed for docking CCR2-RA-[R] (4-[R]) and SN_12 (43), with the generated solutions clustered based on their RMSD with the threshold set to 0.75 Å using the complete linkage method. Docking runs were performed using ChemScore. Flexibility of amino acids Lys63ICL1, Arg1313.50, Leu2406.36 and Arg3078.49 was taken in consideration in the docking runs, with conformational sampling of their side chains being done by the rotamer libraries implemented in GOLD.25, 26 For the docking studies with our ligand-linker conjugates (Figure S1), molecular ligand structures were geometry optimized as neutral molecules by means of Avogadro (Version 1.2.0)29 using the Universal Force Field (UFF) and the Steepest Decent Algorithm until convergence (ΔE = 0).
CCR113 was used for docking. The compounds were docked by means of AutoDock Vina 1.1.2.30, 31 An exhaustiveness value of 8 and a search space of 22 x 22 x 22 Å³ was applied around the unliganded intracellular allosteric binding site of CCR1. Twenty docking poses were generated for each ligand and inspected manually and according to the docking score.

The target of assay [5] is T4, human chemokine receptor CCR1. Nature of the assay: Cellular NanoBiT miniGi recruitment assay. In kind it is cell-based. Conditions: n = 3; read-out: EC50, miniGi recruitment, CCR1 activation. The procedure:
Technologies) for 20 min.
Cellular NanoBiT miniGi recruitment assay s: Chemokine-induced Gi recruitment to the chemokine receptor CCR1 was monitored using a nanoluciferase complementation -based assay (NanoBiT, Promega). 20 5 x 10^6 HEK293T cells were plated in 10 cm dishes and cultured for 24 h before transfection with vectors encoding for the human chemokine receptor CCR1 C-terminally fused with SmBiT and miniGi (mG, engineered GTPase domain of Gα subunit) N-terminally fused with LgBiT. 24 h after transfection cells were harvested, distributed into white 96 -well plates (5 × 10^4 cells per well) and incubated for 1 h at 37 °C with compound 23 at concentrations ranging from 10 nM to 100 µM. The endogenous chemokine ligand CCL5 (3 nM, for CCR1) was then added, and luminescence generated upon nanoluciferase complementation in the presence of coelenterazine H was measured with a Mithras LB940 luminometer (Berthold Technologies) for 20 min. […]
as §2, §3, §4

T3 sequence (P41597 whole entry): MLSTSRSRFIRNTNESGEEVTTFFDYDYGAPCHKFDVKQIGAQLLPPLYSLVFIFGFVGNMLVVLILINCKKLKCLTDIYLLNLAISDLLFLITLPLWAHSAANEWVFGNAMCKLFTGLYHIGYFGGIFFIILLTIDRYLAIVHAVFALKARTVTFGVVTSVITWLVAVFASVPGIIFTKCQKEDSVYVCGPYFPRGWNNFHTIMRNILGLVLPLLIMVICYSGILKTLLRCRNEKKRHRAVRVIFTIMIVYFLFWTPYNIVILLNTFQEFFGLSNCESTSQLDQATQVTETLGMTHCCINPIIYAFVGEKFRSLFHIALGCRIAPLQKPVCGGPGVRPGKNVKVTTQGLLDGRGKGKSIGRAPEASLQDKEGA

What is called Kd is the free concentration of one partner at which half of the binding sites on the other are occupied at equilibrium, for simple one-to-one binding. In the case of `CN(C)c1ccc2c(-c3cc(C(=O)NCc4cn(CCCC(=O)C5=C(O)C(=O)N(c6ccc(Cl)cc6F)C5C5CCCCC5)nn4)ccc3C(=O)[O-])c3ccc(=[N+](C)C)cc-3oc2c1` (stereo not shown) [compound 8], the figures for the Kd in assay [1] and in assay [2] were 2.26 µM and 11.3 ± 0.8 µM, respectively.

Turning to `CN(C)c1ccc2c(-c3cc(C(=O)NCc4cn(CCCC(=O)C5=C(O)C(=O)N(c6ccc(Br)cc6F)C5C5CCCCC5)nn4)ccc3C(=O)[O-])c3ccc(=[N+](C)C)cc-3oc2c1` (stereo not shown) [compound 9], the Kd in assay [1] was 2.27 µM; in assay [2], 14.9 ± 2.1 µM.

A word on the EC50: it is the midpoint of the concentration-response curve. In the case of “CCL2: endogenous chemokine ligand, CCR2 agonist”, the EC50 in assay [3] was 0.00743 µM.

For the molecule “CCL5: endogenous chemokine ligand, CCR1 agonist”, the concentration for a half-maximal effect (EC50) is 0.00101 µM in assay [4] and 0.00293 µM in assay [5].
